Laboratory results published in patent publication US20130143929A1, “FUNGICIDAL IMIDAZOLES” (EI DU PONT DE NEMOURS AND COMPANY, priority 2010, published 2013).
Marks after values point to notes of the source that are not given here.

How the values were obtained:
Format in all cases: in vivo
[1] = tested on: Botrytis cinerea (the causal agent of tomato Botrytis); experiment: Test C: tomato Botrytis, preventive spray on tomato seedlings, visual disease rating; conditions: tomato Botrytis, preventive spray on tomato seedlings
In short: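 Test suspension (acetone/water with 250 ppm Trem 014; 200 ppm equivalent to 800 g/ha) sprayed to run-off on tomato seedlings; B. cinerea spores inoculated next day. After 48 h saturated humidity at 20° C then 3 days at 24° C, disease rated visually as % control relative to untreated controls (0–100).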

[2] = tested on: Puccinia recondite f. sp. tritici (the causal agent of wheat leaf rust); experiment: Test A: wheat leaf rust, preventive spray on wheat seedlings, visual disease rating; conditions: wheat leaf rust, preventive spray on wheat seedlings
In short: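 Wheat seedlings were sprayed to run-off with compound suspended in acetone/water containing 250 ppm Trem 014 (200 ppm ≈ 800 g/ha; some at 40 ppm). Puccinia recondite spores were inoculated the next day. Plants were held 24 h saturated at 20° C, then 7 days at 20° C, and disease control was rated visually on a 0–100 scale against controls.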

[3] = tested on: Septoria tritici (the causal agent of wheat leaf blotch); experiment: Test B: wheat leaf blotch, preventive spray on wheat seedlings, visual disease rating; conditions: wheat leaf blotch, preventive spray on wheat seedlings
In short: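 Wheat seedlings sprayed to run-off with compound suspension (acetone/water with 250 ppm Trem 014; 200 ppm ≈ 800 g/ha, some at 40 ppm), inoculated next day with Septoria tritici spores. 48 h saturated humidity at 24 °C, then 19 days at 20 °C; visual rating, 100 = full control.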

[4] = tested on: Blumeria graminis f. sp. tritici (also known as Erysiphe graminis f. sp. tritici, the causal agent of wheat powdery mildew); experiment: Test D: wheat powdery mildew, preventive spray on wheat seedlings, visual disease rating; conditions: wheat powdery mildew, preventive spray on wheat seedlings
In short: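 Compound suspended in acetone/water (50/50) with 250 ppm Trem 014 and sprayed to run-off on wheat seedlings (200 ppm ≈ 800 g/ha), then inoculated next day with spore dust. Disease rated visually after 8 days at 20 °C as % control relative to untreated plants (0-100).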

[5] = asterisk: 40 ppm test suspension
[6] = no asterisk (standard test suspension concentration, not 40 ppm)

Compound: OC(c1ccc(F)cc1F)c1c(Cl)ncn1-c1c(F)cc(Cl)cc1F (stereo not drawn) [compound 120]
- Test C rating (100 = 100% disease control, 0 = no disease control relative to the controls) [1, 5]: 99* %
- Test A rating (100 = 100% disease control, 0 = no disease control relative to the controls) [2, 5]: 98* %
- Test B rating (100 = 100% disease control, 0 = no disease control relative to the controls) [3, 5]: 100* %
- Test D rating (100 = 100% disease control, 0 = no disease control relative to the controls) [4, 5]: 0* %

Compound: OC(c1ccc(F)cc1F)c1c(Cl)nc(Br)n1-c1c(F)cc(F)cc1Cl (stereo not drawn) [compound 121]
- Test C rating (100 = 100% disease control, 0 = no disease control relative to the controls) [1, 5]: 100* %
- Test A rating (100 = 100% disease control, 0 = no disease control relative to the controls) [2, 5]: 100* %
- Test B rating (100 = 100% disease control, 0 = no disease control relative to the controls) [3, 5]: 100* %
- Test D rating (100 = 100% disease control, 0 = no disease control relative to the controls) [4, 5]: 98* %

Compound: Cc1ncc(C(O)c2ccc(F)cc2F)n1-c1c(F)cc(Cl)cc1F (stereo not drawn) [compound 122]
- Test C rating (100 = 100% disease control, 0 = no disease control relative to the controls) [1, 5]: 0* %
- Test A rating (100 = 100% disease control, 0 = no disease control relative to the controls) [2, 5]: 98* %
- Test B rating (100 = 100% disease control, 0 = no disease control relative to the controls) [3, 5]: 100* %
- Test D rating (100 = 100% disease control, 0 = no disease control relative to the controls) [4, 5]: 0* %

Compound: OC(c1ccc(F)cc1F)c1c(Br)nc(Br)n1-c1c(F)cc(Cl)cc1F (stereo not drawn) [compound 123]
- Test C rating (100 = 100% disease control, 0 = no disease control relative to the controls) [1, 5]: 95* %
- Test A rating (100 = 100% disease control, 0 = no disease control relative to the controls) [2, 5]: 98* %
- Test B rating (100 = 100% disease control, 0 = no disease control relative to the controls) [3, 5]: 100* %
- Test D rating (100 = 100% disease control, 0 = no disease control relative to the controls) [4, 5]: 0* %

Compound: OC(c1ccc(F)cc1F)c1c(Br)nc(Cl)n1-c1c(F)cc(Cl)cc1F (stereo not drawn) [compound 124]
- Test C rating (100 = 100% disease control, 0 = no disease control relative to the controls) [1, 5]: 100* %
- Test A rating (100 = 100% disease control, 0 = no disease control relative to the controls) [2, 5]: 100* %
- Test B rating (100 = 100% disease control, 0 = no disease control relative to the controls) [3, 5]: 100* %
- Test D rating (100 = 100% disease control, 0 = no disease control relative to the controls) [4, 5]: 0* %

Compound: OC(c1ccc(F)cc1F)c1c(Cl)nc(Br)n1-c1c(F)cc(Cl)cc1F (stereo not drawn) [compound 125]
- Test C rating (100 = 100% disease control, 0 = no disease control relative to the controls) [1, 5]: 100* %
- Test A rating (100 = 100% disease control, 0 = no disease control relative to the controls) [2, 5]: 100* %
- Test B rating (100 = 100% disease control, 0 = no disease control relative to the controls) [3, 5]: 100* %
- Test D rating (100 = 100% disease control, 0 = no disease control relative to the controls) [4, 5]: 79* %

Compound: Cc1nc(Br)c(C(O)c2ccc(F)cc2F)n1-c1c(F)cc(Cl)cc1F (stereo not drawn) [compound 126]
- Test C rating (100 = 100% disease control, 0 = no disease control relative to the controls) [1, 5]: 0* %
- Test A rating (100 = 100% disease control, 0 = no disease control relative to the controls) [2, 5]: 96* %
- Test B rating (100 = 100% disease control, 0 = no disease control relative to the controls) [3, 5]: 100* %
- Test D rating (100 = 100% disease control, 0 = no disease control relative to the controls) [4, 5]: 0* %

Compound: Cc1nc(Cl)c(C(O)c2ccc(F)cc2F)n1-c1c(F)cc(Cl)cc1F (stereo not drawn) [compound 127]
- Test C rating (100 = 100% disease control, 0 = no disease control relative to the controls) [1, 5]: 73* %
- Test A rating (100 = 100% disease control, 0 = no disease control relative to the controls) [2, 5]: 100* %
- Test B rating (100 = 100% disease control, 0 = no disease control relative to the controls) [3, 5]: 100* %
- Test D rating (100 = 100% disease control, 0 = no disease control relative to the controls) [4, 5]: 0* %

Compound: Cc1nc(Cl)c(C(O)c2c(F)cc(F)cc2F)n1-c1ccc(F)cc1Cl (stereo not drawn) [compound 128]
- Test C rating (100 = 100% disease control, 0 = no disease control relative to the controls) [1, 6]: 99%
- Test A rating (100 = 100% disease control, 0 = no disease control relative to the controls) [2, 6]: 100%
- Test B rating (100 = 100% disease control, 0 = no disease control relative to the controls) [3, 6]: 100%
- Test D rating (100 = 100% disease control, 0 = no disease control relative to the controls) [4, 6]: 0%

Compound: Cc1nc(Cl)c(C(O)c2ccc(F)cc2Cl)n1-c1ccc(F)cc1Cl (stereo not drawn) [compound 129]
- Test C rating (100 = 100% disease control, 0 = no disease control relative to the controls) [1, 6]: 98%
- Test A rating (100 = 100% disease control, 0 = no disease control relative to the controls) [2, 6]: 100%
- Test B rating (100 = 100% disease control, 0 = no disease control relative to the controls) [3, 6]: 100%
- Test D rating (100 = 100% disease control, 0 = no disease control relative to the controls) [4, 6]: 0%

Compound: Cc1nc(Cl)c(C(O)c2ccc(F)cc2Cl)n1-c1ccc(F)cc1Br (stereo not drawn) [compound 130]
- Test C rating (100 = 100% disease control, 0 = no disease control relative to the controls) [1, 5]: 87* %
- Test A rating (100 = 100% disease control, 0 = no disease control relative to the controls) [2, 6]: 99%
- Test B rating (100 = 100% disease control, 0 = no disease control relative to the controls) [3, 6]: 100%
- Test D rating (100 = 100% disease control, 0 = no disease control relative to the controls) [4, 6]: 0%

Compound: Cc1nc(Cl)c(C(O)c2ccc(F)cc2F)n1-c1c(F)cccc1F (stereo not drawn) [compound 131]
- Test C rating (100 = 100% disease control, 0 = no disease control relative to the controls) [1, 5]: 99* %
- Test A rating (100 = 100% disease control, 0 = no disease control relative to the controls) [2, 5]: 100* %
- Test B rating (100 = 100% disease control, 0 = no disease control relative to the controls) [3, 5]: 100* %
- Test D rating (100 = 100% disease control, 0 = no disease control relative to the controls) [4, 5]: 99* %

Compound: Cc1ncc(C(O)c2ccc(F)cc2)n1-c1c(F)cccc1F (stereo not drawn) [compound 132]
- Test C rating (100 = 100% disease control, 0 = no disease control relative to the controls) [1, 6]: 41%
- Test A rating (100 = 100% disease control, 0 = no disease control relative to the controls) [2, 6]: 99%
- Test B rating (100 = 100% disease control, 0 = no disease control relative to the controls) [3, 6]: 100%
- Test D rating (100 = 100% disease control, 0 = no disease control relative to the controls) [4, 6]: 0%

Compound: Cc1nc(Br)c(C(O)c2ccc(F)cc2)n1-c1c(F)cccc1F (stereo not drawn) [compound 133]
- Test C rating (100 = 100% disease control, 0 = no disease control relative to the controls) [1, 5]: 100* %
- Test A rating (100 = 100% disease control, 0 = no disease control relative to the controls) [2, 5]: 100* %
- Test B rating (100 = 100% disease control, 0 = no disease control relative to the controls) [3, 5]: 100* %
- Test D rating (100 = 100% disease control, 0 = no disease control relative to the controls) [4, 5]: 64* %

Compound: Cc1nc(Br)c(C(O)c2ccc(F)cc2Cl)n1-c1c(F)cccc1Br (stereo not drawn) [compound 134]
- Test C rating (100 = 100% disease control, 0 = no disease control relative to the controls) [1, 6]: 100%
- Test A rating (100 = 100% disease control, 0 = no disease control relative to the controls) [2, 6]: 100%
- Test B rating (100 = 100% disease control, 0 = no disease control relative to the controls) [3, 6]: 100%
- Test D rating (100 = 100% disease control, 0 = no disease control relative to the controls) [4, 6]: 98%

Compound: Cc1nc(Br)c(C(O)c2ccc(F)cc2Cl)n1-c1c(F)cc(F)cc1Br (stereo not drawn) [compound 136]
- Test C rating (100 = 100% disease control, 0 = no disease control relative to the controls) [1, 6]: 100%
- Test A rating (100 = 100% disease control, 0 = no disease control relative to the controls) [2, 6]: 100%
- Test B rating (100 = 100% disease control, 0 = no disease control relative to the controls) [3, 6]: 100%
- Test D rating (100 = 100% disease control, 0 = no disease control relative to the controls) [4, 6]: 79%

Compound: Cc1nc(Cl)c(C(O)c2ccc(F)cc2Cl)n1-c1c(F)cc(F)cc1Br (stereo not drawn) [compound 137]
- Test C rating (100 = 100% disease control, 0 = no disease control relative to the controls) [1, 5]: 100* %
- Test A rating (100 = 100% disease control, 0 = no disease control relative to the controls) [2, 5]: 100* %
- Test B rating (100 = 100% disease control, 0 = no disease control relative to the controls) [3, 5]: 100* %
- Test D rating (100 = 100% disease control, 0 = no disease control relative to the controls) [4, 5]: 87* %

Compound: Cc1cc(F)ccc1C(O)c1cnc(C)n1-c1ccc(F)cc1Br (stereo not drawn) [compound 138]
- Test C rating (100 = 100% disease control, 0 = no disease control relative to the controls) [1, 6]: 0%
- Test A rating (100 = 100% disease control, 0 = no disease control relative to the controls) [2, 6]: 89%
- Test B rating (100 = 100% disease control, 0 = no disease control relative to the controls) [3, 6]: 28%
- Test D rating (100 = 100% disease control, 0 = no disease control relative to the controls) [4, 6]: 0%

Compound: Cc1ncc(C(O)c2ccc(Cl)cc2)n1-c1ccc(F)cc1Br (stereo not drawn) [compound 139]
- Test C rating (100 = 100% disease control, 0 = no disease control relative to the controls) [1, 6]: 0%
- Test A rating (100 = 100% disease control, 0 = no disease control relative to the controls) [2, 6]: 86%
- Test B rating (100 = 100% disease control, 0 = no disease control relative to the controls) [3, 6]: 49%
- Test D rating (100 = 100% disease control, 0 = no disease control relative to the controls) [4, 6]: 0%

Compound: Cc1nc(Br)c(C(O)c2c(F)cccc2F)n1-c1ccc(F)cc1Cl (stereo not drawn) [compound 140]
- Test C rating (100 = 100% disease control, 0 = no disease control relative to the controls) [1, 6]: 100%
- Test A rating (100 = 100% disease control, 0 = no disease control relative to the controls) [2, 6]: 100%
- Test B rating (100 = 100% disease control, 0 = no disease control relative to the controls) [3, 6]: 100%
- Test D rating (100 = 100% disease control, 0 = no disease control relative to the controls) [4, 6]: 50%

Compound: Cc1nc(Br)c(C(O)c2c(F)cc(F)cc2F)n1-c1ccc(F)cc1Cl (stereo not drawn) [compound 141]
- Test C rating (100 = 100% disease control, 0 = no disease control relative to the controls) [1, 6]: 99%
- Test A rating (100 = 100% disease control, 0 = no disease control relative to the controls) [2, 6]: 100%
- Test B rating (100 = 100% disease control, 0 = no disease control relative to the controls) [3, 6]: 100%
- Test D rating (100 = 100% disease control, 0 = no disease control relative to the controls) [4, 6]: 96%
